Data set [1] can be described thus: Cytotoxicity against human HCC827 cells incubated for 72 hrs by MTT assay. It counts as functional, cell-based. The settings on record: HCC827, 72 h. For orientation: Formazan colour is commonly taken as a measure of viable cells.
For data set [2], the system named is NCI-H1975. As to the kind of experiment: Cytotoxicity against human NCI-H1975 cells incubated for 72 hrs by MTT assay. The format is functional, cell-based. The settings on record: NCI-H1975, 72 h.
The next data set concerns HepG2. Description: Cytotoxicity against human HepG2 cells incubated for 72 hrs by MTT assay. It counts as functional, cell-based. The settings on record: HepG2, 72 h.
The target of data set [3] is Epidermal growth factor receptor (Homo sapiens, UniProt P00533, L858R). Description: Inhibition of EGFR L858R mutant. It counts as protein assay.
Data set [4] concerns the target Epidermal growth factor receptor (Homo sapiens, UniProt P00533, L858R/T790M). Description: Inhibition of EGFR L858R/T790M mutant. It counts as protein assay.
The test system of data set [5] is NCI-H1975. As to the kind of experiment: Antitumor activity against human NCI-H1975 cells xenografted in BALB/c mouse assessed as inhibition of tumor growth at 20 mg/kg, po qd. The format is functional. The settings on record: read-out: TGI.
The next data set concerns Mus musculus. Description: Toxicity in human NCI-H1975 cells xenografted BALB/c mouse assessed as body weight loss at 20 mg/kg, po qd. On the set-up: dose 20 mg/kg, route oral. It counts as organism-based. The settings on record: in vivo. A general note: In xenograft studies the graft and the host belong to different species.
A further data set has as its system HCC827. As to the kind of experiment: Antitumor activity against human HCC827 cells xenografted in BALB/c mouse assessed as reduction tumor volume at 100 mg/kg, po qd. It counts as functional, organism-based. Further details: dose 100 mg/kg.
The next data set concerns PC-9. As to the kind of experiment: Cytotoxicity against human PC9 cells incubated for 72 hrs by MTT assay. It counts as functional, cell-based. The settings on record: PC-9, 72 h.

The source made the active and inactive calls. The rule behind the calls is not given here.

Sequence of Epidermal growth factor receptor (Homo sapiens, UniProt P00533, L858R/T790M) (P00533 25-1210 T790M/L858R limits assumed): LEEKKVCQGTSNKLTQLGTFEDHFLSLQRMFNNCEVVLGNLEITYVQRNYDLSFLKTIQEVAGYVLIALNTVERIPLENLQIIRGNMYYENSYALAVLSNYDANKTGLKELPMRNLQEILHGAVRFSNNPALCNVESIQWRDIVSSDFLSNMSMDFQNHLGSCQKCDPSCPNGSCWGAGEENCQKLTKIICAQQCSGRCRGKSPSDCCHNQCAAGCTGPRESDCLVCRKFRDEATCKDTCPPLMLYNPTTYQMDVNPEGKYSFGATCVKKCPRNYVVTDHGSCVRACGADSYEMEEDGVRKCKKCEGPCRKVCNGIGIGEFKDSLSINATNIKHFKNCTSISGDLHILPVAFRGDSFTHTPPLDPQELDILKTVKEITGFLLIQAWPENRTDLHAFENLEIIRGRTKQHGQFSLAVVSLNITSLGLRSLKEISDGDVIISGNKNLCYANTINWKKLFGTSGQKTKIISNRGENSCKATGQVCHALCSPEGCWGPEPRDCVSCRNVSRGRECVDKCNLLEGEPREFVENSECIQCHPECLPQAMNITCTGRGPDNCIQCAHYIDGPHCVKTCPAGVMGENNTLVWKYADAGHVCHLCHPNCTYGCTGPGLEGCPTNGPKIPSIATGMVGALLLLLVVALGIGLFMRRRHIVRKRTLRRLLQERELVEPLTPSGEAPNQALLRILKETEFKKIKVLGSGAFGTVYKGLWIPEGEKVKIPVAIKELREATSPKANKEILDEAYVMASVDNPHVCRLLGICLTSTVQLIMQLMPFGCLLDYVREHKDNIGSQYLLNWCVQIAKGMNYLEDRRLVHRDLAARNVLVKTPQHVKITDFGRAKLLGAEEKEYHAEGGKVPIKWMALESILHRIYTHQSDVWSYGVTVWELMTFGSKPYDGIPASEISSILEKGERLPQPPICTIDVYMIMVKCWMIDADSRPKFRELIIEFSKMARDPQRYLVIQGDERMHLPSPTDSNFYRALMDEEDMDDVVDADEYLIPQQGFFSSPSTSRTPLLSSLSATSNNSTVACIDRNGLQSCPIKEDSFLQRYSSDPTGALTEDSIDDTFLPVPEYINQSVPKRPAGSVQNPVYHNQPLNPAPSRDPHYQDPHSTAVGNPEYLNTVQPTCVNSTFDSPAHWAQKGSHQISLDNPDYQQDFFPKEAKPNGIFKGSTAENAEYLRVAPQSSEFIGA
Sequence of Epidermal growth factor receptor (Homo sapiens, UniProt P00533, L858R) (P00533 25-1210 L858R limits assumed): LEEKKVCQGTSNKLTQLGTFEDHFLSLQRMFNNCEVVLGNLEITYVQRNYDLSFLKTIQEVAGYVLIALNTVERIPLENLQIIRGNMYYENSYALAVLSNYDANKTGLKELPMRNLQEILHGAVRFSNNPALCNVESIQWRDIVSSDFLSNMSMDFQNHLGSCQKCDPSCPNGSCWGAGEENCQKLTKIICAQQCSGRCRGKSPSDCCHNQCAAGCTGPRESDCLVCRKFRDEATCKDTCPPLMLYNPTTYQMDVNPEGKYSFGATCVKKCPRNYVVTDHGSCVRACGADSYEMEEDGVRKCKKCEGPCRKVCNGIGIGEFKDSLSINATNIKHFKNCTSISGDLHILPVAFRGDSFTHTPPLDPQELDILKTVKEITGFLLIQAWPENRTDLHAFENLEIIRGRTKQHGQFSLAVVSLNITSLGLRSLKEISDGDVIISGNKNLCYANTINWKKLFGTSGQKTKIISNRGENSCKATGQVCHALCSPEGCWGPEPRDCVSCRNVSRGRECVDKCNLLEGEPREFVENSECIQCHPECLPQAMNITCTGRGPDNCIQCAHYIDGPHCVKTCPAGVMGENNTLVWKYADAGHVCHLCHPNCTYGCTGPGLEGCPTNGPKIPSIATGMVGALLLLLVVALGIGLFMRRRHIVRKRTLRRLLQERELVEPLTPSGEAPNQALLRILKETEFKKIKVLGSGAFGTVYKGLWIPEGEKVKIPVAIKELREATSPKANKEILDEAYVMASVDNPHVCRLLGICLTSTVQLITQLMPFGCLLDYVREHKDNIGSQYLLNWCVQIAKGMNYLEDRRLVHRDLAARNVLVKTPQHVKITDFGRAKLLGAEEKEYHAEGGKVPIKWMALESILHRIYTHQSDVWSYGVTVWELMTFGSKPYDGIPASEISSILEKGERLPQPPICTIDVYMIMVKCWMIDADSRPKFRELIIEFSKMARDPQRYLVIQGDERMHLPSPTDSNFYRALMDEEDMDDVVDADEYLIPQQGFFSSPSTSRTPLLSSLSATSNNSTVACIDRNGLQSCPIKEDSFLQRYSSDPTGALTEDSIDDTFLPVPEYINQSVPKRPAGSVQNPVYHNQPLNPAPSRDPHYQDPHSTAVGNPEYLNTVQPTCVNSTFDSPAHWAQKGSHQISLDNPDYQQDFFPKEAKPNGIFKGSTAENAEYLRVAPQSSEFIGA

As to `CN1CCN(c2ccc(Nc3ncc4nc(Nc5ccccc5)n(-c5ccccc5)c4n3)cc2)CC1`, the IC50 (commonly the midpoint of a concentration-inhibition curve) in [1] is 1.7 nM; with NCI-H1975 [2] it was 1830 nM; with HepG2 it was over 5000 nM.
Turning to `CN1CCN(c2ccc(Nc3ncc4nc(Nc5ccccc5)[nH]c4n3)cc2)CC1`, the IC50 in data set [1] is 233 nM; with NCI-H1975 [2], 18100 nM; in [3] it was 98 nM; in the data set with HepG2, over 5000 nM; in data set [4], 978 nM.
For `CC(C)n1c(Nc2ccccc2)nc2cnc(Nc3ccc(N4CCN(C)CC4)cc3)nc21`, the IC50 in data set [1] is 0.1 nM; with NCI-H1975 [2], 960 nM; with HepG2, over 5000 nM.
As for `CN1CCN(c2ccc(Nc3ncc4nc(Nc5ccccc5)n(C)c4n3)cc2)CC1`, the IC50 in data set [1] is 24 nM; in the data set on NCI-H1975 [2], 6060 nM; in the data set with HepG2, over 5000 nM.
The corresponding values for `CN1CCN(c2ccc(Nc3ncc4nc(Nc5cccc(Cl)c5)n(C5CCCC5)c4n3)cc2)CC1` are under 0.01 nM, 390 nM and 4800 nM.
In the case of `CN(C)C/C=C/C(=O)Nc1cc2c(Nc3ccc(F)c(Cl)c3)ncnc2cc1O[C@H]1CCOC1` [AFATINIB], the inhibition in vivo at 20 mg/kg in the data set with NCI-H1975 [5] was found to be 74%. In addition, in the data set with Mus musculus, the Activity is 6.6%.
In the case of `c1ccc(Nc2nc3cnc(Nc4ccc(N5CCOCC5)cc4)nc3n2C2CCCC2)cc1`, the IC50 is 0.66 nM in [1], 9200 nM with NCI-H1975 [2] and over 5000 nM in the data set with HepG2.
Take `CN1CCN(c2ccc(Nc3ncc4nc(Nc5ccc(Br)cc5)n(C5CCCC5)c4n3)cc2)CC1`: the 50% inhibitory concentration (IC50) in [1] is 2.2 nM; in the data set on NCI-H1975 [2], 2090 nM; in the data set with HepG2, over 5000 nM.
Turning to `C#Cc1cccc(Nc2nc3cnc(Nc4ccc(N5CCN(C)CC5)cc4)nc3n2C2CCCC2)c1`, the 50% inhibitory concentration (IC50) was under 0.01 nM in data set [1], 650 nM in the data set on NCI-H1975 [2] and 4900 nM in the data set with HepG2.
`CN1CCN(c2ccc(Nc3ncc4nc(Nc5cccc(O)c5)n(C5CCCC5)c4n3)cc2)CC1`: the figures for the IC50 (in [1]; in the data set on NCI-H1975 [2]; in the data set with HepG2) were 0.72 nM, 1020 nM and 4200 nM, respectively.
As for `Cc1cccc(Nc2nc3cnc(Nc4ccc(N5CCN(C)CC5)cc4)nc3n2C2CCCC2)c1`, the IC50 is under 0.01 nM in data set [1], 560 nM with NCI-H1975 [2] and 4700 nM in the data set with HepG2.
Taken in the same sequence, the figures for `CC1CCN(c2ccc(Nc3ncc4nc(Nc5ccccc5)n(C5CCCC5)c4n3)cc2)CC1` were 32 nM, 9800 nM and over 5000 nM.
For the molecule `CN1CCN(c2ccc(Nc3ncc4nc(Nc5cc(Cl)ccc5Cl)n(C5CCCC5)c4n3)cc2)CC1`, the results for the concentration for half-maximal inhibition (IC50) (in data set [1]; in the data set on NCI-H1975 [2]; in the data set on HepG2) were 0.01 nM, 2540 nM and over 5000 nM, respectively.
Regarding `c1ccc(Nc2ncc3nc(Nc4ccccc4)n(C4CCCC4)c3n2)cc1`, the IC50 in data set [1] was 2.7 nM; with NCI-H1975 [2], over 10000 nM; in the data set on HepG2, over 5000 nM.
Take `OCCNc1ccc(Nc2ncc3nc(Nc4ccccc4)n(C4CCCC4)c3n2)cc1`: the IC50 in data set [1] is 2.8 nM; with NCI-H1975 [2], 2810 nM; in the data set with HepG2 it was over 5000 nM.
Consider `CN1CCN(c2ccc(Nc3ncc4nc(Nc5cccc(NC(=O)c6ccccc6)c5)n(C5CCCC5)c4n3)cc2)CC1`, for which the 50% inhibitory concentration (IC50) in data set [1] is 15 nM; in the data set with NCI-H1975 [2] it was 2120 nM; with HepG2 it was 2600 nM.
The corresponding values for `CN1CCN(c2ccc(Nc3ncc4nc(Nc5cccc([N+](=O)[O-])c5)n(C5CCCC5)c4n3)cc2)CC1` are under 0.01 nM, 980 nM and over 5000 nM.
`CN1CCN(c2ccc(Nc3ncc4nc(Nc5ccccc5)n(C5CCCCC5)c4n3)cc2)CC1`: the IC50 in data set [1] is under 0.01 nM; in the data set with NCI-H1975 [2] it was 390 nM; in the data set with HepG2 it was over 5000 nM.
For the molecule `COc1cc2ncnc(Nc3ccc(F)c(Cl)c3)c2cc1OCCCN1CCOCC1` [GEFITINIB], the TGI result in the data set on HCC827 was “Active”. The molecule also gave an IC50 in the data set on PC-9 of 14 nM.
As to `CN1CCN(c2ccc(Nc3ncc4nc(Nc5ccccc5)n(C5CC5)c4n3)cc2)CC1`, the IC50 is 18 nM in [1], 2860 nM with NCI-H1975 [2] and over 5000 nM in the data set on HepG2.
Consider `CC(=O)Nc1ccc(Nc2ncc3nc(Nc4ccccc4)n(C4CCCC4)c3n2)cc1`, for which the values for the IC50 (in data set [1]; with NCI-H1975 [2]; with HepG2) were 0.47 nM, 1210 nM and over 5000 nM, respectively.
On to `Cc1cc(C)cc(-n2c(Nc3ccccc3)nc3cnc(Nc4ccc(N5CCN(C)CC5)cc4)nc32)c1`, for which the concentration for half-maximal inhibition (IC50) in data set [1] was 1 nM; in the data set on NCI-H1975 [2], 1910 nM; in the data set on HepG2, over 5000 nM.
With `CN1CCN(c2ccc(Nc3ncc4nc(Nc5ccc(Br)cc5F)n(C5CCCC5)c4n3)cc2)CC1`, the half-maximal inhibitory concentration (IC50) in data set [1] is 2.3 nM; with NCI-H1975 [2], 1120 nM; in the data set on HepG2 it was over 5000 nM.
Consider `CN1CCN(c2ccc(Nc3ncc4nc(Nc5cccc(C(=O)Nc6ccc(Cl)cc6)c5)n(C5CCCC5)c4n3)cc2)CC1`, for which the half-maximal inhibitory concentration (IC50) in [1] is 2900 nM; in the data set on NCI-H1975 [2], 4010 nM; with HepG2, over 5000 nM.

Source of the values: ChEMBL document CHEMBL2177100, “Structural optimization and structure-activity relationships of N2-(4-(4-Methylpiperazin-1-yl)phenyl)-N8-phenyl-9H-purine-2,8-diamine derivatives, a new class of reversible kinase inhibitors targeting both EGFR-activating and resistance mutations” (J Med Chem, 2012).
